Source: ChEMBL document CHEMBL4765323, “Design, synthesis, and biological evaluation of novel miconazole analogues containing selenium as potent antifungal agents” (Eur J Med Chem, 2020)
≈ marks a conversion by molar mass, not a printed value.

How the values were obtained:
Candida albicans [1] = assay: Inhibition of CYP51 in azole-resistant Candida albicans ATCC […] assessed as Eburicol level at 8 ug/ml incubated for 16 hrs by LC-MS analysis relative to control; design: scale not given: the % may be the effect or the level left; conditions: dose 8.0 µg/ml
Candida albicans [2] = assay: Antibiofilm activity against FCZ-Resistant Candida albicans CPCC400616 assessed as sessile minimum inhibitory concentration of biofilm formation at 50% after 3 hrs by XTT assay; assay type: functional
Candida albicans [3] = assay: Antibiofilm activity against FCZ-Resistant Candida albicans CPCC400616 assessed as sessile minimum inhibitory concentration of biofilm formation at 80% after 1.5 hrs by XTT assay; assay type: functional
Candida albicans [4] = assay: Antifungal activity against Candida albicans CPCC400616 measured after 24 hrs by micro-broth dilution assay; assay type: functional
Candida albicans [5] = assay: Inhibition of CYP51 in azole-resistant Candida albicans ATCC […] assessed as ergosterol level at 0.125 ug/ml incubated for 16 hrs by LC-MS analysis relative to control; design: scale not given: the % may be the effect or the level left; conditions: dose 0.125 µg/ml
Cryptococcus neoformans = assay: Antifungal activity against Cryptococcus neoformans CGMCC2.3161 measured after 72 hrs by micro-broth dilution assay; assay type: functional
Candida albicans [6] = assay: Inhibition of CYP51 in azole-resistant Candida albicans ATCC […] assessed as Obtusifoliol level at 0.5 ug/ml incubated for 16 hrs by LC-MS analysis relative to control; design: scale not given: the % may be the effect or the level left; conditions: dose 0.5 µg/ml
Candida albicans [7] = assay: Inhibition of CYP51 in azole-resistant Candida albicans ATCC […] assessed as ergosterol level at 0.5 ug/ml incubated for 16 hrs by LC-MS analysis relative to control; design: scale not given: the % may be the effect or the level left; conditions: dose 0.5 µg/ml
Candida albicans [8] = assay: Inhibition of CYP51 in azole-resistant Candida albicans ATCC […] assessed as ergosterol level at 0.03125 ug/ml incubated for 16 hrs by LC-MS analysis relative to control; design: scale not given: the % may be the effect or the level left; conditions: dose 0.03125 µg/ml
Candida albicans [9] = assay: Antibiofilm activity against FCZ-Resistant Candida albicans CPCC400616 assessed as sessile minimum inhibitory concentration of biofilm formation at 80% after 24 hrs by XTT assay; assay type: functional
Candida parapsilosis = assay: Antifungal activity against Candida parapsilosis ATCC 22019 measured after 24 hrs by micro-broth dilution assay; assay type: functional; conditions: Lodderomyces parapsilosis
Candida albicans [10] = assay: Antibiofilm activity against FCZ-Resistant Candida albicans CPCC400616 assessed as sessile minimum inhibitory concentration of biofilm formation at 50% after 1.5 hrs by XTT assay; assay type: functional
Candida albicans [11] = assay: Antibiofilm activity against FCZ-Resistant Candida albicans CPCC400616 assessed as sessile minimum inhibitory concentration of biofilm formation at 50% after 6 hrs by XTT assay; assay type: functional
Candida albicans [12] = assay: Inhibition of CYP51 in azole-resistant Candida albicans ATCC […] assessed as Obtusifoliol level at 8 ug/ml incubated for 16 hrs by LC-MS analysis relative to control; design: scale not given: the % may be the effect or the level left; conditions: dose 8.0 µg/ml
[Candida] zeylanoides = Antifungal activity against Candida zeylanoides CMGCC2.3739 measured after 24 hrs by micro-broth dilution assay; assay type: functional; conditions: Dujonia zeylanoides
Nakaseomyces glabratus = assay: Antifungal activity against clinical isolate Candida glabrata measured after 24 hrs by micro-broth dilution assay; assay type: functional
Candida albicans [13] = assay: Inhibition of CYP51 in azole-resistant Candida albicans ATCC […] assessed as Eburicol level at 0.5 ug/ml incubated for 16 hrs by LC-MS analysis relative to control; design: scale not given: the % may be the effect or the level left; conditions: dose 0.5 µg/ml
Candida albicans [14] = assay: Antibiofilm activity against FCZ-Resistant Candida albicans CPCC400616 assessed as sessile minimum inhibitory concentration of biofilm formation at 80% after 3 hrs by XTT assay; assay type: functional
Candida albicans [15] = assay: Antibiofilm activity against FCZ-Resistant Candida albicans CPCC400616 assessed as sessile minimum inhibitory concentration of biofilm formation at 80% after 6 hrs by XTT assay; assay type: functional
Candida albicans [16] = assay: Inhibition of CYP51 in azole-resistant Candida albicans ATCC […] assessed as Eburicol level at 2 ug/ml incubated for 16 hrs by LC-MS analysis relative to control; design: scale not given: the % may be the effect or the level left; conditions: dose 2.0 µg/ml
[17] = Ratio of MFC for fungicidal activity against Candida albicans CPCC400616 to MIC for Antifungal activity against Candida albicans CPCC400616; assay type: functional; conditions: time 24 hrs
Candida albicans [18] = assay: Inhibition of CYP51 in azole-resistant Candida albicans ATCC […] assessed as Obtusifoliol level at 2 ug/ml incubated for 16 hrs by LC-MS analysis relative to control; design: scale not given: the % may be the effect or the level left; conditions: dose 2.0 µg/ml
Candida albicans [19] = assay: Inhibition of CYP51 in azole-resistant Candida albicans ATCC […] assessed as Lanosterol level at 0.03125 ug/ml incubated for 16 hrs by LC-MS analysis relative to control; design: scale not given: the % may be the effect or the level left; conditions: dose 0.03125 µg/ml
Candida albicans [20] = assay: Inhibition of CYP51 in azole-resistant Candida albicans ATCC […] assessed as Lanosterol level at 0.125 ug/ml incubated for 16 hrs by LC-MS analysis relative to control; design: scale not given: the % may be the effect or the level left; conditions: dose 0.125 µg/ml
Pichia kudriavzevii = assay: Antifungal activity against Candida krusei AS 2.1045 measured after 24 hrs by micro-broth dilution assay; assay type: functional
Candida albicans [21] = assay: Inhibition of CYP51 in azole-resistant Candida albicans ATCC […] assessed as Eburicol level at 0.125 ug/ml incubated for 16 hrs by LC-MS analysis relative to control; design: scale not given: the % may be the effect or the level left; conditions: dose 0.125 µg/ml
[22] = Ratio of hemolysis activity in rabbit RBC to MIC for Candida albicans; assay type: toxicity; conditions: rabbit red blood cells (RBC)
Aspergillus fumigatus = assay: Antifungal activity against Aspergillus fumigatus CGMCC 3.7795 measured after 72 hrs by micro-broth dilution assay; assay type: functional
Candida albicans [23] = assay: Inhibition of CYP51 in azole-resistant Candida albicans ATCC […] assessed as ergosterol level at 2 ug/ml incubated for 16 hrs by LC-MS analysis relative to control; design: scale not given: the % may be the effect or the level left; conditions: dose 2.0 µg/ml
Candida albicans [24] = assay: Inhibition of CYP51 in azole-resistant Candida albicans ATCC […] assessed as Eburicol level at 0.03125 ug/ml incubated for 16 hrs by LC-MS analysis relative to control; design: scale not given: the % may be the effect or the level left; conditions: dose 0.03125 µg/ml
Candida albicans [25] = assay: Inhibition of CYP51 in azole-resistant Candida albicans ATCC […] assessed as Lanosterol level at 2 ug/ml incubated for 16 hrs by LC-MS analysis relative to control; design: scale not given: the % may be the effect or the level left; conditions: dose 2.0 µg/ml
Candida albicans [26] = assay: Inhibition of CYP51 in azole-resistant Candida albicans ATCC […] assessed as Lanosterol level at 0.5 ug/ml incubated for 16 hrs by LC-MS analysis relative to control; design: scale not given: the % may be the effect or the level left; conditions: dose 0.5 µg/ml
Candida albicans [27] = assay: Inhibition of CYP51 in azole-resistant Candida albicans ATCC […] assessed as inhibition of ergosterol biosynthesis by measuring ergosterol content at 8 ug/ml incubated for 16 hrs by LC-MS analysis relative to control; design: scale not given: the % may be the effect or the level left; conditions: dose 8.0 µg/ml
Candida albicans [28] = assay: Inhibition of CYP51 in azole-resistant Candida albicans ATCC […] assessed as Obtusifoliol level at 0.03125 ug/ml incubated for 16 hrs by LC-MS analysis relative to control; design: scale not given: the % may be the effect or the level left; conditions: dose 0.03125 µg/ml
Candida albicans [29] = assay: Inhibition of CYP51 in azole-resistant Candida albicans ATCC […] assessed as Lanosterol level at 8 ug/ml incubated for 16 hrs by LC-MS analysis relative to control; design: scale not given: the % may be the effect or the level left; conditions: dose 8.0 µg/ml
Candida albicans [30] = assay: Antifungal activity against Candida albicans ATCC SC5314 measured after 24 hrs by micro-broth dilution assay; assay type: functional
Candida albicans [31] = assay: Antibiofilm activity against FCZ-Resistant Candida albicans CPCC400616 assessed as sessile minimum inhibitory concentration of biofilm formation at 50% after 24 hrs by XTT assay; assay type: functional
Candida albicans [32] = assay: Fungicidal activity against Candida albicans CPCC400616 measured after 48 hrs; assay type: functional
Candida albicans [33] = assay: Inhibition of CYP51 in azole-resistant Candida albicans ATCC […] assessed as Obtusifoliol level at 0.125 ug/ml incubated for 16 hrs by LC-MS analysis relative to control; design: scale not given: the % may be the effect or the level left; conditions: dose 0.125 µg/ml
Candida albicans [34] = assay: Antifungal activity against fluconazole-resistant Candida albicans 632 measured after 24 hrs by micro-broth dilution assay; assay type: functional
Candida albicans [35] = assay: Antifungal activity against fluconazole-resistant Candida albicans strain 904 measured after 24 hrs by micro-broth dilution assay; assay type: functional
Candida albicans [36] = assay: Antifungal activity against fluconazole-resistant Candida albicans CaR measured after 24 hrs by micro-broth dilution assay; assay type: functional
Candida albicans [37] = assay: Antifungal activity against Candida albicans 901 measured after 24 hrs by micro-broth dilution assay; assay type: functional
Candida albicans [38] = assay: Antifungal activity against fluconazole-resistant Candida albicans 17 measured after 24 hrs by micro-broth dilution assay; assay type: functional

## Clc1ccc(COC(Cn2ccnc2)c2ccc(Cl)cc2Cl)c(Cl)c1 (configuration not stated) [MICONAZOLE]
Candida albicans [1]
  Activity: 74.2%
Candida albicans [2]
  Activity: 32 µg/mL
Candida albicans [3]
  Activity: 128 µg/mL
Candida albicans [4]
  MIC: 0.25 µg/mL (≈ 0.601 µM)
Candida albicans [5]
  Activity: 7.3%
Cryptococcus neoformans
  MIC: 0.5 µg/mL (≈ 1.2 µM)
Candida albicans [6]
  Activity: 6.1%
Candida albicans [7]
  Activity: 8.3%
Candida albicans [8]
  Activity: 11.3%
Candida albicans [9]
  Activity: >128 µg/mL
Candida parapsilosis
  MIC: 0.25 µg/mL (≈ 0.601 µM)
Candida albicans [10]
  Activity: 16 µg/mL
Candida albicans [11]
  Activity: >128 µg/mL
Candida albicans [12]
  Activity: 14.6%
[Candida] zeylanoides
  MIC: 1 µg/mL (≈ 2.4 µM)
Nakaseomyces glabratus
  MIC: 0.5 µg/mL (≈ 1.2 µM)
Candida albicans [13]
  Activity: 64.8%
Candida albicans [14]
  Activity: 128 µg/mL
Candida albicans [15]
  Activity: >128 µg/mL
Candida albicans [16]
  Activity: 80.7%
[17]
  MFC/MIC ratio: 8
Candida albicans [18]
  Activity: 9.7%
Candida albicans [19]
  Activity: 12.4%
Candida albicans [20]
  Activity: 14.1%
Pichia kudriavzevii
  MIC: 0.5 µg/mL (≈ 1.2 µM)
Candida albicans [21]
  Activity: 63.5%
[22]
  selectivity ratio: 8
Aspergillus fumigatus
  MIC: 2 µg/mL (≈ 4.81 µM)
Candida albicans [23]
  Activity: 5.49%
Candida albicans [24]
  Activity: 2.9%
Candida albicans [25]
  Activity: 6.4%
Candida albicans [26]
  Activity: 8.9%
Candida albicans [27]
  Activity: 0%
Candida albicans [28]
  Activity: 2.9%
Candida albicans [29]
  Activity: 7.8%
Candida albicans [30]
  MIC: 0.03 µg/mL (≈ 0.0721 µM)
Candida albicans [31]
  Activity: >128 µg/mL
Candida albicans [32]
  MIC: 2 µg/mL (≈ 4.81 µM)
Candida albicans [33]
  Activity: 7.2%

## OC(Cn1cncn1)(Cn1cncn1)c1ccc(F)cc1F [FLUCONAZOLE]
Candida albicans [1]
  Activity: 70.6%
Candida albicans [4]
  MIC: 4 µg/mL (≈ 13.1 µM)
Candida albicans [5]
  Activity: 8.3%
Cryptococcus neoformans
  MIC: 4 µg/mL (≈ 13.1 µM)
Candida albicans [34]
  MIC: > 128 µg/mL
Candida albicans [6]
  Activity: 9%
Candida albicans [7]
  Activity: 7.1%
Candida albicans [8]
  Activity: 12.2%
Candida parapsilosis
  MIC: 4 µg/mL (≈ 13.1 µM)
Candida albicans [35]
  MIC: > 128 µg/mL
Candida albicans [36]
  MIC: > 128 µg/mL
Candida albicans [12]
  Activity: 9.2%
[Candida] zeylanoides
  MIC: 4 µg/mL (≈ 13.1 µM)
Nakaseomyces glabratus
  MIC: 32 µg/mL (≈ 104 µM)
Candida albicans [13]
  Activity: 70.6%
Candida albicans [16]
  Activity: 75.2%
Candida albicans [37]
  MIC: > 128 µg/mL
Candida albicans [18]
  Activity: 17.7%
Candida albicans [38]
  MIC: 128 µg/mL (≈ 418 µM)
Candida albicans [19]
  Activity: 9.8%
Candida albicans [20]
  Activity: 7.2%
Pichia kudriavzevii
  MIC: 32 µg/mL (≈ 104 µM)
Candida albicans [21]
  Activity: 6.7%
Aspergillus fumigatus
  MIC: > 128 µg/mL
Candida albicans [23]
  Activity: 5.2%
Candida albicans [24]
  Activity: 2.9%
Candida albicans [25]
  Activity: 7.4%
Candida albicans [26]
  Activity: 9.5%
Candida albicans [27]
  Activity: 74.8%
Candida albicans [28]
  Activity: 1.6%
Candida albicans [29]
  Activity: 9.4%
Candida albicans [30]
  MIC: 1 µg/mL (≈ 3.27 µM)
Candida albicans [33]
  Activity: 11.4%
